The source of these data is patent publication US20260217647A1, “CANCER CELL GROWTH INHIBITING COMPOSITION AND PROCESSED FOOD” (HAGIHARA FARM PRODUCTION INSTITUTE CO., LTD., priority 2023, published 2026).

The experiment deals with Jurkat cells. The experiment is described as follows: Growth-inhibiting activity on human leukemia T cell line Jurkat cells (viable cell counting reagent SF, 72 h). The settings on record: 72 h incubation, cell viability by absorbance A450-A630. The format is cell-based. The protocol: The cancer cell growth-inhibiting activity of each of the above samples was evaluated using the human leukemia T cell line, Jurkat.
A suspension of Jurkat cells was prepared at 2×10^5 cells/mL, and 50 μL of the suspension was seeded into each well of a 96-well plate. The evaluation sample was dissolved in DMSO and subsequently diluted 500 fold with culture medium. Immediately after dilution, 50 μL of the resulting solution was added to each well to initiate treatment. After incubation for 72 h, 10 μL of the viable cell counting reagent SF was added to each well. Following incubation for 2 to 3 hours to allow color development, absorbance at 450 nm and 630 nm was measured using a microplate reader. Cell viability was then calculated using the following formula (F1).
As, Ab, and Ac are defined as follows. • As: absorbance of evaluation well • Ab: absorbance of negative control well • Ac: absorbance of control well
The respective “absorbances” in the above formula were calculated by subtracting the absorbance at 630 nm (A630) from the absorbance at 450 nm (A450) and was represented by “A450-A630”. Furthermore, to calculate IC50, a linear approximation was performed on a graph showing the logarithmic values of the two concentrations that most narrowly bracketed a cell viability of 50%.

The term IC50 denotes the concentration that inhibits the measured activity by half. A high value points to weaker potency in that assay. For the compound `CSC/C=C(\C)CCC[C@H](C)CCC[C@H](C)CCCC(C)C` [PT37], the IC50 was above 100 µM. The same compound displayed a concentration for half-maximal inhibition (IC50) (Homo sapiens, Jurkat, 72 h) of at least 100 µM.
